From patent publication US6921530B1, “Low dose IL-2 for potentiation of immunity” (Cornell Research Foundation, Inc., priority 1999, dated 2005)
Where “and” joins values, the source holds several entries; their conditions need not be identical. Equal values may be shown once.

How the values were obtained:
plasma HIV RNA = experiment: Plasma HIV RNA (branched chain DNA assay) after cessation of PART with continued low-dose IL-2; assay type: in vivo; conditions: for Increasing HIV Dbl time: IL-2 250,000 U/m^2 daily continued; for Max. Decrease (log): peak to trough
Procedure: The parameters monitored throughout the study included the time to the onset of viremia, the rate of viremic increase, the peak plasma virus concentration and the rapidity and completeness of the disappearance of viremia.
Prior to the discontinuation of PART, at least 3 months of daily, low-dose (250,000 U/m^2) subcutaneous IL-2 (R-Met-HU IL2-Ala-125, Amgen, Thousand Oaks, Calif.) immuno-stimulatory therapy were administered as described in Jacobsen, E L et al., Proc Natl Acad Sci USA 93:10405-10 (1996). In addition, to ensure the safest possible immune parameters for the discontinuation of PART, IL-2 immuno-stimulation was continued after the anti-viral drugs were withdrawn. […] All subjects had undetectable plasma virus during this interval.
Subsequent to the discontinuation of PART, plasma HIV was monitored twice weekly. Plasma HIV RNA concentrations were determined on EDTA anti-coagulated plasma samples, which were frozen (−70° C.) within 3 hours of phlebotomy. Samples were assayed by Bayer Diagnostics, Emeryville, Calif. Lymphocyte subsets were determined on fresh blood samples by flow cytometry using subset-specific monoclonal antibodies and a FACSCaliber from Becton-Dickinson, San, Jose, Calif. by standard procedures according to the manufacturer. All subjects eventually experienced a relapse of viremia The onset of viremia in each subject was taken as t=day 1. The mean time interval until plasma virus once again became detectable was 19±3 (SEM) days (range 14-39 days). Once detectable, the plasma virus concentration increased progressively over 2.5 weeks, reaching a mean peak of 375,101±229,139 (SEM) (log10=5.15±0.21) HIV RNA molecules/ml. Thereafter, the virus concentration decreased progressively over the next 4-6 weeks, reaching an apparent trough defined as at least 4 successive measures of HIV RNA that varied less than 3-fold. By 6 weeks from the onset of the viremia, the mean virus concentration had decreased to 31,707±11,851 (SEM) (log10=4.21±0.19) HIV RNA molecules/ml, a drop from the peak viral concentration by an order of magnitude.

[1] = Tolerability of daily IL-2 doses in earlier studies of the applicant; assay type: in vivo
Procedure: a) IL-2: The initial dose of IL-2 used in this study is based on our studies in HIV infection. Individuals with HIV were able to tolerate rIL-2 at 1.2×10^6 IU/m^2/day. […] Peak plasma levels are measured at two hours after initial IL-2 injection. Dosage adjustments of IL-2 are made under the following circumstances:
(1) IL-2 Dosage reduction: If a subject experiences WHO grade I systemic toxicity, and is unable to tolerate the daily dose of rIL-2 at 1.2×10^6 IU/m^2/day, the dose is reduced to 0.9×10^6 IU/m^2/day. In the event that toxicity continues, the dose is decreased to 0.75 IU/m^2/day, which is halfway between the previous dose and the dose we have previously determined to be ineffective (0.6 IU/m^2/d).
This dose is midway between the starting dose and the dose found to be toxic in 100% of patients (2.4×10^6 IU /m^2/d). In the event that toxicity occurs, the dose is adjusted to 1.4×10^6 IU 1m^2/day, and if there is still toxicity, the dose will be returned to 1.2×10^6 IU /m^2/day.

HCV = conditions: 1-2 MIU s.c. daily; cited from earlier work
[2] = after cessation of PART, IL-2 continued, subject #1-9, mean
[3] = after cessation of PART, IL-2 continued, subject #1-9, mean, mean
[4] = second treatment interruption, 4 subjects

Substance: Interleukin-2 [IL-2]
- peak plasma HIV RNA after the first interruption (plasma HIV RNA; 3 of 4 individuals): 5.53±0.54 log10 HIV RNA molecules/ml
- peak plasma HIV RNA after the second interruption (plasma HIV RNA; 3 of 4 individuals): 4.27±0.27 log10 HIV RNA molecules/ml
- peak plasma HIV RNA lower after second than first interruption (plasma HIV RNA; 3 of 4 individuals): 1.26±0.14 log10 HIV RNA molecules/ml
- Increasing HIV Dbl time (plasma HIV RNA; after cessation of PART, subject #1-9, mean): 2.7 days and 1.3 days and 1.0 days and 2.0 days (2×) and 1.6 days (3×) and 1.2 days
- Increasing HIV Dbl time (plasma HIV RNA; after cessation of PART, subject #1-9, mean, mean): 1.6 days
- Decreasing HIV Time to Min. (plasma HIV RNA; [2]): 9 days and 28 days and 24 days and 7 days and 26 days (2×) and 10 days and 17 days and 18 days
- Increasing HIV Days to Peak (plasma HIV RNA; [2]): 28 days and 14 days (3×) and 21 days and 16 days (2×) and 18 days and 10 days
- Peak HIV # (plasma HIV RNA; [2]): 375,101±229,139 HIV RNA molecules/ml and 230,074 HIV RNA molecules/ml and 14059 HIV RNA molecules/ml and 40662 HIV RNA molecules/ml and 295942 HIV RNA molecules/ml and 160949 HIV RNA molecules/ml and 2185670 HIV RNA molecules/ml and 300203 HIV RNA molecules/ml and 375101 HIV RNA molecules/ml and 80910 HIV RNA molecules/ml and 230074 HIV RNA molecules/ml and 67442 HIV RNA molecules/ml
- Peak HIV (log) (plasma HIV RNA; [2]): 5.15±0.21 log and (4.15) log and (4.61) log and (5.47) log and (5.21) log and (6.34) log and (5.48) log and (5.15) log and (4.91) log and (5.36) log and (4.83) log
- Trough HIV (log) (plasma HIV RNA; [2]): 4.21±0.19 log and (3.96) log and (4.36) log and (4.69) log and (4.93) log and (4.97) log and (4.21) log and (3.68) log and (4.00) log and (3.36) log
- Trough HIV # (plasma HIV RNA; after cessation of PART, IL-2 continued, subject #1-9, mean (by 6 weeks from onset of viremia)): 31,707±11,851 HIV RNA molecules/ml and 9215 HIV RNA molecules/ml and 9180 HIV RNA molecules/ml and 22695 HIV RNA molecules/ml and 48562 HIV RNA molecules/ml and 85782 HIV RNA molecules/ml and 92901 HIV RNA molecules/ml and 31707 HIV RNA molecules/ml and 4741 HIV RNA molecules/ml and 10024 HIV RNA molecules/ml and 2266 HIV RNA molecules/ml
- Decreasing HIV Time to Min. (plasma HIV RNA; [3]): 18 days
- Increasing HIV Days to Peak (plasma HIV RNA; [3]): 17 days
- time interval until plasma virus once again became detectable (plasma HIV RNA; after discontinuation of PART, 9 subjects, mean ± SEM and range): 19 ± 3 days and 14 to 39 days
- Decreasing HIV T ½ (plasma HIV RNA; first 10 days after peak, IL-2 continued, subject #1-9, mean): 3.5 ± 0.7 days and 7.6 days and 5.2 days and 5.5 days and 3.4 days and 1.6 days and 3.9 days and 3.5 days and 1.5 days and 1.8 days
- Max. Decrease (log) (plasma HIV RNA; subject #1-9, mean): 0.19 log and 0.65 log and 1.11 log and 0.52 log and 1.41 log and 0.51 log and 1.23 log and 1.36 log and 1.47 log
- Max. Decrease (log) (plasma HIV RNA; subject #1-9, mean, mean): 0.94 log
- latent period to detectable viremia (plasma HIV RNA; [4]): 14.5 ± 4.1 days
- rate of doubling (t½) (plasma HIV RNA; [4]): 1.5 ± 0.3 days
- days plasma HIV RNA undetectable after discontinuation of PART (plasma HIV RNA; subject D3): 39 days
- plasma HIV RNA after 98 days as % of the peak viral concentration (plasma HIV RNA; subject D3): < 1%
- plasma HIV RNA after 98 days without PART (plasma HIV RNA; subject D3): 1,686 HIV RNA molecules/ml
- mean magnitude of decline of plasma HIV, rapid rate subjects (plasma HIV RNA; subjects #1, 2, 3, 8): 1.37±0.05 log10 HIV RNA molecules/ml
- t ½ of viral decline, subjects with rapid rate (plasma HIV RNA; subjects #1, 2, 3, 8): 1.6 ± 0.1 days
- magnitude of decline of plasma HIV, slower rate subjects (plasma HIV RNA; subjects #4, 5, 6, 7, 9): 0.59±0.15 log10 HIV RNA molecules/ml
- mean t ½ of viral decline, subjects with slow rate (plasma HIV RNA; subjects #4, 5, 6, 7, 9): 5.1 ± 0.7 days
- patients in whom the dose was toxic ([1]; 2.4×10^6 IU /m^2/d): 100%
- dose previously determined to be ineffective ([1]; in vivo): 0.6 IU/m^2/d
- tolerated daily dose ([1]; individuals with HIV): 1.2×10^6 IU/m^2/day
- subjects showing a decrease in ALT (HCV): 70%
